The results in this text go back to US20230147249A1, “METHODS OF APPLYING A FUMIGANT TO REDUCE FUSARIUM CONTAMINATION” (Taminco BV, priority 2020, published 2023).

Assay [1] relates to Cavendish banana plants. The assay is described as follows: Field trial: growth and development of banana plants after metam sodium soil injection at 30 cm and 60 cm. Type of assay: in vivo, Cavendish banana (Musa). On the procedure: The analyses described in this example were carried out in the Philippines in a field in which Musa trees (specifically bananas) were to be planted, in the spring (beginning in March). Final determinations were carried out in September of the same year.
(§1) Metam Sodium Application. Metam sodium 510 SL (equivalent to 42% w/w) was applied to soil at the following doses: 0 liters per hectare (L/ha), 750 L/ha, 1500 L/ha, 2250 L/ha, 3000 L/ha.
(§2) Prior to injection, soil was prepared using a rototiller to break the soil structure from 0 cm to 80 cm deep, allowing for the smooth and even injection application by an injection machine. The soil was then leveled and made uniform, and the metam sodium was applied at two depths: 30 cm and 60 cm, using injection methods. The temperature was at a minimum of 10 QC and soil humidity was between 50 and 60% holding capacity, allowing the applied product to transform from metam sodium (liquid) to MITC (gas).
(§3) The application was made using an injection machine wherein the machine lowered shanks and began moving forward such that the shanks lowered to a depth of 60 cm and injectors applied the metam sodium into the soil. When the injection at 60 cm was complete, the process was repeated for the entire field at 30 cm. The treated soil in the field was then sealed using a packer roller (which was part of the injection machinery, located at the back end of the machine), after each application.
Plant Selection and Transplantation. Cavendish banana plants were used for this investigation. In order to avoid plants already contaminated by other soil, all plants were produced in vitro using art-recognized methods. Plants were transplanted into the field 14 days after the final soil reading was taken (21 days after treatment).
Data Gathering. Data were gathered at monthly intervals beginning three months after banana plants were transplanted. A total of three data collection sessions were conducted. Data including the number of leaves, plant height, and girth size were collected.

In assay [2] the test system is F. oxysporum f. sp. cubense. Description: Panama disease analysis of soil samples after metam sodium soil injection. Format: in vivo, Fusarium oxysporum f. sp. cubense Tropical Race 4. The following applies: any of the treated groups (750-3000 L/ha); any day post application. The procedure:
as §1, §2, §3
Soil Analysis. Soil samples were obtained at 20, 40, and 60 cm before application and every 24 hours beginning 48 hours after application, for seven days.
Plant Pathology Analysis. […]

Assay [3] deals with Foc TR4 chlamydospores. The assay is described as follows: Efficacy of metam sodium on Foc TR4 chlamydospores in vitro (colony growth on PDA plates). Format: cell-based, Fusarium oxysporum f. sp. cubense Tropical Race 4. The procedure:
Foc TR4 chlamydospores were extracted from infested soil and incubated with a dilution series of metam sodium for 5 min and 60 min at room temperature. Thereafter, the samples were diluted 10× to get reduction of the treatment and sufficient dilution of chlamydospores to avoid lack of resolution when grown on plate. Aliquots of 100 μl were plated on PDA plates in duplicate and incubated for 3 days at 25° C. Plates were photographed and scored.

[4] abbreviates: 750 L/ha, six months after treatment.
The mark [5] stands for this setting: 1500 L/ha, six months after treatment.
Where [6] appears, read: 2250 L/ha, six months after treatment.
Setting [7] is: 3000 L/ha, six months after treatment.

In the case of `CNC(=S)[S-].[Na+]` [metam sodium, sodium N-methyldithiocarbamate], in assay [1] (750 L/ha), the “effect on average girth size of banana plant” value is given as ~1 cm. Moreover, the “increase in average height of banana plant” value is listed as ~5 cm in assay [1] (750 L/ha) and 20-23 cm in assay [1] (1500-3000 L/ha). The “effect on plants reaching bagging stage” value in assay [1] (setting [4]) is “did not have a meaningful effect”. Further, the “percent of plants at either shooting or bagging stage” value in assay [1] (setting [4]) is 11%; in assay [1] (setting [5]), 28%; in assay [1] (setting [6]) it was 27%; in assay [1] (setting [7]) it was 35%. The “percent of plants at shooting stage” value in assay [1] (setting [4]) is given as 9%; in assay [1] (setting [5]), 10%; in assay [1] (setting [6]), 17%; in assay [1] (setting [7]) it was 22%. Further, the “increase in average girth size of banana plant” value in assay [1] (1500-3000 L/ha) is 4-6 cm. Moreover, the “percent of plants at bagging stage” value in assay [1] (1500 to 3000 L/ha, six months after treatment) was 11-19%. For the same molecule, the “increase of average number of leaves per banana plant” value in assay [1] (regardless of dose applied (750-3000 L/ha), versus 0 L/ha) was “roughly 1.5 fold”. For the same molecule, the “Foc TR4 detection in soil” value in assay [2] is recorded as “No Foc TR4 was detected”. Also, the “effect of prolonged incubation on number of surviving chlamydospores (growing colonies)” value in assay [3] (100× dilution, 60 min versus 5 min) is recorded as “more effective in reducing the number of surviving chlamydospores”. Besides, the “efficacy on Foc TR4 colony growth” value is listed as “effective” in assay [3] (dilution of 10×, incubation time 5 minutes); “less effective” in assay [3] (dilution of 100×, 5 and 60 minutes). In addition, the “reduction in viability of Foc TR4 chlamydospores (colony growth)” value in assay [3] (first test, dilutions from 1000 up to 10×10^6-fold, 60 min) is listed as “No significant reduction in viability”. Moreover, the “efficacy against Foc TR4 chlamydospores” value in assay [3] (in vitro conditions, dependent on high concentrations) was “effective against Foc TR4 chlamydospores”. Further, in assay [3] (second test, 10× and 100× dilutions), the “efficacy on surviving chlamydospores” value is listed as “(partially) effective”. Besides, the “number of chlamydospores that survived” value in assay [3] (second test, dilutions of 1000× and more) is “did not affect the number of chlamydospores that survived”.
